# Values joined by “and” are separate entries in the source; they are usually repeats but may differ in a detail not shown here. Equal values may be shown once. “Also recorded” adds a separate entry of the source. Read-outs that look alike come from different tables or passages of the source.
# Assays:
# [1] = target: T1, norepinephrine transporter (NET) (Mus musculus, UniProt O55192); assay: Dose dependency of myocardial [^11C]mHED uptake by PET/CT (NET saturation); assay type: in vivo, FVB/N mice; conditions: mouse myocardium
# T1 construct: from tissue; host or cells: myocardium (sympathetic nerve terminals) of living FVB/N mice, in vivo PET/CT
# T1 sequence (O55192 whole entry): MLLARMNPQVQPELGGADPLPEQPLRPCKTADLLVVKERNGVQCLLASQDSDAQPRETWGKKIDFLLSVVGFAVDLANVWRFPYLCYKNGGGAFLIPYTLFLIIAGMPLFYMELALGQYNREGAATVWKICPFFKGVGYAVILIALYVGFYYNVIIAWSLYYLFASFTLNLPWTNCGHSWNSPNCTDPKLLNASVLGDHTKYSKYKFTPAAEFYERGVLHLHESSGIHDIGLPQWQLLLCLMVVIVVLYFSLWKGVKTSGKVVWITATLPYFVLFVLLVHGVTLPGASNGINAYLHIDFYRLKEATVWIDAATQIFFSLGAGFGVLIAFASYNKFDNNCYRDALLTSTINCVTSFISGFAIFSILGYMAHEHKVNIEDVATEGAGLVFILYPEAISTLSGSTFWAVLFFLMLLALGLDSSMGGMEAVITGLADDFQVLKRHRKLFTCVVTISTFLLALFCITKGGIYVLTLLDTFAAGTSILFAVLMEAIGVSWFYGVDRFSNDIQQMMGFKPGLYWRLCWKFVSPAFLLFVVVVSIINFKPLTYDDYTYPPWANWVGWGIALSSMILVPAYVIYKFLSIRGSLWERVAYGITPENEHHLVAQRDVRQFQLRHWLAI
# Protocol: (§1) PET/computed tomography (CT) scans were performed with a calibrated SuperArgus PET/CT scanner (Sedecal, Madrid, Spain) with an axial field of view of 4.8 cm and a spatial resolution of 1.6–1.7 mm (full width at half maximum). Animals were under anaesthesia with ~ 2.5% isoflurane in oxygen/air (1:1) for tracer injection into the tail vein and during the scan. […] For scans without kinetic modelling, tracer was injected into mouse tail vein on scanner bed and the scan was started 1 min p.i. For kinetic modelling, [^11C]mHED was injected using the shunt system (see “Input function” section) on the scanner bed. Depth of anaesthesia was monitored by measuring the respiratory rate (SA Instruments, Inc., Stony Brook, USA). Body temperature was monitored by a rectal probe and kept at 37 °C by a heated air stream (37 °C). […] PET scans were followed by a CT for anatomical orientation.
# For quantitative analyses, PET data in NIfTI file format were read with the R package oro.nifti version 0.9.1, and a cube of 36 × 30 × 30 voxels (8.7 × 7.3 × 7.3 mm^3) including the heart as judged from the PET and CT data was cropped. A liver mask was defined including all voxels with a slope ≥ − 0.012 SUV/min between 11 and 48 min p.i. (the slope limit was empirically defined by visual inspection of the results, Fig. 1). PET data corresponding to the liver mask were excluded. The myocardium mask was defined from the remaining data as the volume with highest SUV between 3 and 11 min p.i., corresponding to 0.5% of the individual body weight. Average SUV was calculated for the indicated time windows (stated as SUVstart time–end time). The SUV of the neck region was obtained from a spherical region of interest with 3 mm radius, placed over the shoulders, close to the spine.
# The dose of combined administered [^11C]mHED and metaraminol (precursor for radiosynthesis) at half-maximal NET saturation in nmol/kg (D50) was calculated from the myocardial SUV1–31 min at various doses (D). […] Fit parameters were SUV1–31 min at indefinitely low dose (SUVmax), SUV1–31 min at full NET saturation, i.e. SUV1–31 min for nondisplaceable tracer (SUVmin) and D50, according to Eq. 3 which was fit to the data with the function nls of R.3 SUV1-31min=SUVmax-SUVmin×D50/D50+D+SUVmin
# mouse myocardium = assay: [^11C]mHED PET kinetic (compartment) modelling with arteriovenous shunt input function; assay type: in vivo, FVB/N mice; conditions: mean of 3 scans (SD)
# Protocol: as §1
# For kinetic modelling, an arteriovenous shunt system was applied to record the coincidences of arterial blood (Twilite, Swisstrace, Zurich, Switzerland) simultaneously with the PET data acquisition (Additional file 1). The resulting blood coincidences were transformed to Bq/ml with a calibration factor determined from simultaneous measurements of an [^11C]mHED solution in the PET scanner and the blood counter. Next, the blood Bq/ml was multiplied with fitted Eq. 2 to calculate the plasma activity concentration. Finally, the plasma Bq/ml was multiplied with fitted Eq. 1 to receive the parent tracer Bq/ml in plasma, which is the input function.
# PET kinetic modelling with R was performed with a one- and three two-tissue compartment models according to Eq. 4,4 CPET=1-vb×Wmodel⊗Ca+vb×Cb where CPET is the activity concentration in the PET image, either as kBq/cm^3 or normalised as SUV, vb is the partial volume of blood in the region-of-interest (potentially including interstitial space), Wmodel is the model-dependent weighting function. Ca is the parent tracer activity concentration in the arterial plasma (input function, kBq/ml, or SUV), and Cb is the whole blood activity concentration as calculated from the blood coincidences, in kBq/cm^3 or as SUV.
# WTCM1 for the one-tissue compartment model (TCM1, Fig. 2a) corresponds to K1 × exp(− k2 × t), with t as time, K1 and k2 the clearance term from plasma to tissue and rate constant back, respectively. WTCM2p and WTCM2s for the two-tissue compartment models with parallel (TCM2p, Fig. 2b) and serial (TCM2s, Fig. 2c) tissue compartments, respectively, were according to Eqs. 5–10 [16]. In the case of the TCM2p, K1, k2, K3, and k4 correspond to φ1, θ1, φ2, and θ2, respectively, of Eq. 5. WTCM2v for the two-tissue compartment model in Fig. 2d (TCM2v) was numerically solved from the differential equation system in Eqs. 11 and 12 with the R package deSolve and the ode function, with 1-s time intervals.
# Besides the transfer clearance or rate constants K1, k2, k3 (or K3 for TCM2p), and k4, vb was included as a parameter to fit. Equation 3 was fit to the experimental TACs applying the optim minimization function of R.
# Fits were run with multiple starts with a matrix of 101 sets of random start parameters between lower and upper limits for K1, k2, k3 (or K3), k4, and vb (Additional file 1: Table S1). The activity concentrations in the individual tissue compartments were simulated by numerically solving the respective differential equation systems for TCM2s and TCM2v and from the analytical solutions for TCM2p (the two exponential terms of Eq. 5). Calculations were performed in parallel on a 32 core workstation. Best fits were chosen based on the sum of squared residues (SSR) between predicted and experimental TACs. […] Correlations between parameters were calculated with the lm, cor, and cor.test functions of R and were considered significant at p < 0.05.
# [2] = target: T1, norepinephrine transporter (NET); assay: PET/CT myocardial tracer uptake with desipramine blocking (specificity for NET); assay type: in vivo, FVB/N mice; conditions: 20 mg/kg desipramine HCl i.p. 10 min before tracer i.v.
# Protocol: as §1
# Two [^11C]mHED scans (one baseline, one for kinetic modelling) were excluded from further analysis due to technical problems before or during the scan, respectively (not included in Table 1). […] Tissue radioactivity was either expressed as kBq/cm^3 or normalized to the injected dose per g body weight (kBq/g) and expressed as SUV, assuming a tissue density of 1 g/cm^3. […]
# [3] = Protocol: For determining activity concentration ratios of plasma to whole blood in mice, 11–90 MBq [^11C]mHED were injected intravenously (i.v.) via the tail vein in awake mice. After anaesthesia, animals were euthanized at the indicated time points and blood was collected. An aliquot was centrifuged as described above to separate plasma from blood cells. Plasma and whole blood activity concentrations (Bq/ml) were determined by a gamma counter (Wizard 1480; Perkin Elmer) to calculate the plasma/whole blood activity concentration ratio (ρplasma/blood). Bi-exponential function (Eq. 2) was fit to ρplasma/blood over time using the nls function of R.2 ρplasma/blood=r1×exp-r3×t-r2×exp-r4×t+r2
# In Eq. 2, r1 to r4 are the fit parameters and t is the time.
# [4] = after [^11C]mHED i.v. injection
# Protocol: Mice were injected awake with formulated [^11C]mHED (26–173 MBq) via the tail vein. Animals were anaesthetized with 5% isoflurane in oxygen/air (1:1) and euthanized by decapitation at the indicated time points to collect blood, urine, and heart tissue. Plasma was separated from blood by centrifugation (5000×g for 5 min at 4 °C). Plasma and urine were each mixed with equal volumes of ice-cold acetonitrile (MeCN) for protein precipitation. The dissected heart was homogenized in 2 ml PBS, and proteins were precipitated with 2 ml ice-cold MeCN. The samples were centrifuged (5000×g, 4 °C), and the supernatants were filtered and analysed by radio-UPLC (Waters Acquity UPLC HSS T3 1.8 µm) with the following separation conditions: 10 mM NH4HCO3 (solvent A), MeCN (solvent B); 0.0–1.0 min, 5–30% B; 1.0–1.7 min, 30% B; 1.7–1.8 min, 30–5% B and 1.8–3.0 min, 5% B at a flow rate of 0.5 ml/min (retention time: 1.75 min). The fraction of parent tracer radioactivity to total radioactivity in plasma (fparent) was calculated as the ratio of radioactivity in the [^11C]mHED peak and total detected radioactivity in the chromatogram.
# In Eq. 1, q1 to q4 are the fit parameters (q3 was estimated and fixed) and t is the time. Equation 1 was empirically defined, taking into account the exponential functions of time under linear kinetics and a lag phase for metabolite formation.
# NET [5] = conditions: cited from earlier work; for D50: rat left ventricle wall
# NET [6] = tested on: NET; design: method as in PMID 20679472, PMID 9290077; conditions: mouse myocardium; cited from earlier work
# myocardium = tested on: myocardium; design: method as in PMID 27230922; conditions: humans, recent PET study; cited from earlier work
# NET [7] = tested on: NET; design: method as in PMID 21555377, PMID 23601914; conditions: rabbits; cited from earlier work
# NET [8] = tested on: NET; design: method as in PMID 21555377, PMID 23601914; conditions: nonhuman primates; cited from earlier work
# NET [9] = tested on: NET; design: method as in PMID 21555377, PMID 23601914; conditions: human subjects; cited from earlier work
# NET [10] = tested on: NET; design: method as in PMID 21555377, PMID 23601914; conditions: rats; cited from earlier work
# [11] = volume-of-interest 0.5% body volume
smiles,measurement,setting,value
"C[C@H](N[11CH3])[C@H](O)c1cccc(O)c1 [[^11C]mHED, [^11C]meta-hydroxyephedrine]",D50 (dose of combined [^11C]mHED and metaraminol at half-maximal NET saturation),"[1]; from SUV1–31 min, fit Eq. 3, n = 14 scans",88.3 nmol/kg
same,D50 (dose at half-maximal NET saturation),[1]; from SUV1–61 min (complete scan duration),89.1 nmol/kg
same,Fit SUVmax (SUV1–31 min at indefinitely low dose),[1]; [11],4.4
same,"Fit SUVmin (SUV1–31 min at full NET saturation, nondisplaceable tracer)",[1]; [11],1.0
same,K1,mouse myocardium; TCM1,0.87 ± 0.11 ml/min/cm^3 and 0.868 (0.113) ml/min/cm^3
same,k2,mouse myocardium; TCM1,0.029 (0.01) 1/min
same,K1,mouse myocardium; TCM2p,0.499 (0.153) ml/min/cm^3
same,K3,mouse myocardium; TCM2p,0.448 (0.114) ml/min/cm^3
same,k2,mouse myocardium; TCM2p,0.0125 (0.0034) 1/min
same,k4,mouse myocardium; TCM2p,0.134 (0.040) 1/min
same,K1,mouse myocardium; TCM2s,0.947 ± 0.146 ml/min/cm^3 and 0.947 (0.146) ml/min/cm^3
same,k2,mouse myocardium; TCM2s,0.0672 (0.0062) 1/min
same,k3,mouse myocardium; TCM2s,0.0541 (0.0263) 1/min
same,k4,mouse myocardium; TCM2s,0.0254 (0.0117) 1/min
same,K1,mouse myocardium; TCM2v,0.947 ± 0.146 ml/min/cm^3 and 0.947 (0.146) ml/min/cm^3
same,k2,mouse myocardium; TCM2v,0.0672 (0.0062) 1/min
same,k3,mouse myocardium; TCM2v,0.0669 (0.0344) 1/min
same,k4,mouse myocardium; TCM2v,0.0125 (0.0034) 1/min
same,Blocking of myocardial tracer uptake by desipramine,[2],significantly reduced; also recorded: blocking effect was observed
same,ρplasma/blood (plasma/whole blood activity concentration ratio),[3]; at 3 min,~ 0.6
same,ρplasma/blood (plasma/whole blood activity concentration ratio),[3]; constant value from ~ 20 min onwards,~ 1
same,ρplasma/blood (plasma/whole blood activity concentration ratio),"[3]; time t = 0, assumed 1/(1-Hkt), hematocrit 0.458",1.85
same,Radiometabolite in plasma and urine,[4]; mouse,detected a radiometabolite in plasma and urine
same,Radiometabolite in myocardium,[4]; mouse heart extract,no radiometabolite were detected
same,Reported D50,NET [5]; rat myocardium,91 nmol/kg
same,Reported D50,NET [6],132 nmol/kg
same,K1 of [^11C]mHED uptake,myocardium,up to 0.6 ml/min/g
"N=C(N)NCc1ccc(OCCC[18F])c(Br)c1 [[^18F]LMI1195, [^18F]flubrobenguane]",Blocking of myocardial tracer uptake by desipramine,[2],not
same,Desipramine sensitivity of cardiac uptake,NET [7],desipramine-sensitive
same,Desipramine sensitivity of cardiac uptake,NET [8],desipramine-sensitive
same,Desipramine sensitivity of cardiac uptake,NET [9],desipramine-sensitive
same,Desipramine sensitivity of cardiac uptake,NET [10],not in rats
C[C@H](N)[C@H](O)c1cccc(O)c1 [metaraminol],D50,NET [5],90 to 100 nmol/kg
"CNC(C)C(O)c1cccc(O)c1 (stereo not shown) [mHED, meta-hydroxyephedrine]",D50,NET [5],90 to 100 nmol/kg

# From article PMC7524946, “[^11C]mHED PET follows a two-tissue compartment model in mouse myocardium with norepinephrine transporter (NET)-dependent uptake, while [^18F]LMI1195 uptake is NET-independent” (EJNMMI Research, 2020)
